Assay: in vitro
Conditions: for Measured concentration of analyte PEA, 0 min / Measured concentration of analyte PEA, 10 min / Measured concentration of analyte PEA, 20 min / Measured concentration of analyte PEA, 30 min / Measured concentration of analyte PEA, 60 min / % Remaining of Initial, 0 min / % Remaining of Initial, 10 min / % Remaining of Initial, 20 min / % Remaining of Initial, 30 min / % Remaining of Initial, 60 min: 1 μM; for % Remaining of Initial, 0 min / % Remaining of Initial, 10 min / % Remaining of Initial, 20 min / % Remaining of Initial, 30 min / % Remaining of Initial, 60 min / microsomal CLint at 1 μM / half-life at 1 μM: microsomes; for % Remaining of Initial, 0 min: 0 h; for % Remaining of Initial, 30 min: 0.5 h; for % Remaining of Initial, 60 min: 1 h
Description: The reaction mixture, minus cofactors, was prepared as described below. The test article was added into the reaction mixture at a final concentration of 1 μM. […] An aliquot of the reaction mixture (without cofactor) was equilibrated in a shaking water bath at 37° C. for 3 minutes. The reaction was initiated by the addition of cofactor, and the mixture was incubated in a shaking water bath at 37° C. Aliquots (100 μL) were withdrawn at 0, 10, 20, 30, and 60 minutes. All samples were immediately combined with 400 μL of ice-cold 50/50 acetonitrile/H2O containing 0.1% formic acid and internal standard to terminate the reaction. The samples were then mixed and centrifuged to precipitate proteins. Calibration standards were prepared in matched matrix. All samples and standards were assayed by LC-MS/MS using electrospray ionization for both the dosed prodrug I-9 and the expected drug (PEA). Analytical conditions are outlined in Appendix 4-1. The test article concentration at each time point was compared to the test article concentration at time 0 to determine the percent remaining at each time point. Half-lives were calculated using GraphPad software, fitting to a single-phase exponential decay equation.
Reaction mixture, minus cofactors, was prepared as described below. Test article was added into the reaction mixture at a final concentration of 1 μM. […] An aliquot of the reaction mixture (without cofactor) was equilibrated in a shaking water bath at 37° C. for 3 minutes. The reaction was initiated by the addition of cofactor, and the mixture was incubated in a shaking water bath at 37° C. Aliquots (100 μL) were withdrawn at 0, 10, 20, 30, and 60 minutes. Test article samples were immediately combined with 300 μL of ice-cold acetonitrile containing 1% formic acid. Control samples were immediately combined with 400 μL of ice-cold 50/50 acetonitrile (ACN)/dH2O containing 0.1% formic acid and internal standard to terminate the reaction. Samples were then mixed and centrifuged to precipitate proteins. Calibration standards were prepared in matched matrix. Samples and standards were assayed by LC-MS/MS using electrospray ionization for both dosed prodrug and expected drug (PEA). Analytical conditions are outlined in Appendix 8-1. Test article concentration at each time point was compared to test article concentration at time 0 to determine the percent remaining at each time point. Half-lives were calculated using GraphPad software, fitting to a single-phase exponential decay equation.
Reaction mixture, minus cofactors, was prepared as described below. Test article was added into the reaction mixture at a final concentration of 1 μM. […] An aliquot of the reaction mixture (without cofactor) was equilibrated in a shaking water bath at 37° C. for 5 minutes. Reaction was initiated by the addition of cofactor, and the mixture was incubated in a shaking water bath at 37° C. Aliquots (100 μL) were withdrawn at 0, 10, 20, 30, and 60 minutes. Test article samples were immediately combined with 300 μL of ice-cold acetonitrile containing 1% formic acid. Control samples were immediately combined with 400 μL of ice-cold 50/50 acetonitrile (ACN)/dH2O containing 0.1% formic acid and internal standard to terminate the reaction. Samples were then mixed and centrifuged to precipitate proteins. Calibration standards were prepared in matched matrix. Samples and standards were assayed by LC-MS/MS using electrospray ionization for both the dosed prodrug and the expected drug (PEA). Analytical conditions are outlined in Appendix 10-1. Test article concentration at each time point was compared to the test article concentration at time 0 to determine the percent remaining at each time point. Half-lives were calculated using GraphPad software, fitting to a single-phase exponential decay equation.
Reaction mixture, minus cofactors, was prepared as described below. Test article was added into the reaction mixture at a final concentration of 1 μM.

[1] = male, Sprague-Dawley, rat, Half-life
[2] = both, human, calculated value in parentheses
[3] = both, human, Calculated half-life (in parentheses)
[4] = male, Sprague-Dawley, rat, calculated value in parentheses
[5] = male, Sprague-Dawley, rat, Calculated half-life (in parentheses)

Measured concentration of analyte PEA, 0 min (both, human)	Measured concentration of analyte PEA, 10 min (both, human)	Measured concentration of analyte PEA, 20 min (both, human)	Measured concentration of analyte PEA, 30 min (both, human)	Measured concentration of analyte PEA, 60 min (both, human)	% Remaining of Initial, 0 min (both, human)	% Remaining of Initial, 10 min (both, human)	% Remaining of Initial, 20 min (both, human)	% Remaining of Initial, 30 min (both, human)	% Remaining of Initial, 60 min (both, human)	microsomal CLint at 1 μM (both, human)	half-life at 1 μM (both, human, Half-life)	Measured concentration of analyte PEA, 0 min (male, Sprague-Dawley, rat)	Measured concentration of analyte PEA, 10 min (male, Sprague-Dawley, rat)	Measured concentration of analyte PEA, 20 min (male, Sprague-Dawley, rat)	Measured concentration of analyte PEA, 30 min (male, Sprague-Dawley, rat)	Measured concentration of analyte PEA, 60 min (male, Sprague-Dawley, rat)	% Remaining of Initial, 0 min (male, Sprague-Dawley, rat)	% Remaining of Initial, 10 min (male, Sprague-Dawley, rat)	% Remaining of Initial, 20 min (male, Sprague-Dawley, rat)	SMILES	other results
0 µM	0 µM	0 µM	0 µM	0 µM	100%	82%	58%	66%	68%	< 23.1 µL/min/mg	> 1 h	0.14 µM	0.064 µM	0.017 µM	0.0098 µM	0.0012 µM	100%	68%	67%	CCCCC/C=C\C/C=C\CCCCCCCC(=O)OCCNC(=O)CCCCCCCCCCCCCCC [Compound I-6]	microsomal CLint at 1 μM [2]: 14.3 µL/min/mg; half-life at 1 μM [3]: 1.62 h; % Remaining of Initial, 30 min (male, Sprague-Dawley, rat): 62%; % Remaining of Initial, 60 min (male, Sprague-Dawley, rat): 53%; microsomal CLint at 1 μM (male, Sprague-Dawley, rat): < 23.1 µL/min/mg; microsomal CLint at 1 μM [4]: 21.9 µL/min/mg; half-life at 1 μM [5]: 1.05 h; half-life at 1 μM [1]: > 1 h
0.22 µM	0.39 µM	0.28 µM	0.22 µM	0.080 µM	100%	4.6%	1.3%	<1.0%	<1.0%	612 µL/min/mg	0.0383 h	0.054 µM	0.14 µM	0.087 µM	0.045 µM	0.0085 µM	100%	45%	17%	CCCCCCCCCCCCCCCC(=O)NCCOC(=O)CCC(=O)OC[C@H]1O[C@@](CO)(O[C@H]2O[C@H](CO)[C@@H](O)[C@H](O)[C@H]2O)[C@@H](O)[C@@H]1O [Compound I-7]	% Remaining of Initial, 30 min (male, Sprague-Dawley, rat): 11%; % Remaining of Initial, 60 min (male, Sprague-Dawley, rat): 2.1%; microsomal CLint at 1 μM (male, Sprague-Dawley, rat): 164 µL/min/mg; half-life at 1 μM [1]: 0.142 h

Further lines, the molecule ahead of its results:

SMILES	Measured concentration of analyte PEA, 0 min (both, human)	Measured concentration of analyte PEA, 10 min (both, human)	Measured concentration of analyte PEA, 20 min (both, human)	Measured concentration of analyte PEA, 30 min (both, human)	Measured concentration of analyte PEA, 60 min (both, human)	% Remaining of Initial, 0 min (both, human)	% Remaining of Initial, 10 min (both, human)	% Remaining of Initial, 20 min (both, human)	% Remaining of Initial, 30 min (both, human)	% Remaining of Initial, 60 min (both, human)	microsomal CLint at 1 μM (both, human)	half-life at 1 μM (both, human, Half-life)	Measured concentration of analyte PEA, 0 min (male, Sprague-Dawley, rat)	Measured concentration of analyte PEA, 10 min (male, Sprague-Dawley, rat)	Measured concentration of analyte PEA, 20 min (male, Sprague-Dawley, rat)	Measured concentration of analyte PEA, 30 min (male, Sprague-Dawley, rat)	Measured concentration of analyte PEA, 60 min (male, Sprague-Dawley, rat)	% Remaining of Initial, 0 min (male, Sprague-Dawley, rat)	% Remaining of Initial, 10 min (male, Sprague-Dawley, rat)	% Remaining of Initial, 20 min (male, Sprague-Dawley, rat)	other results
CCCCCCCCCCCCCCCC(=O)NCCOC(=O)CCC [Compound I-2]	0.15 µM	0.23 µM	0.19 µM	0.15 µM	0.071 µM	100%	10%	1.6%	<1.0%	<1.0%	451 µL/min/mg	0.0517 h	0.40 µM	0.11 µM	0.028 µM	0.0083 µM	0 µM	100%	<1.0%	<1.0%	% Remaining of Initial, 30 min (male, Sprague-Dawley, rat): <1.0%; % Remaining of Initial, 60 min (male, Sprague-Dawley, rat): <1.0%; microsomal CLint at 1 μM (male, Sprague-Dawley, rat): > 1380 µL/min/mg; half-life at 1 μM [1]: < 0.0167 h
CCCCCCCCCCCCCCCC(=O)NCCOC(=O)CCC(=O)OCC(COC(=O)CCCCCCC)OC(=O)CCCCCCC (stereo not drawn) [Compound I-3, PEA-Succinate-Glycerol-Di-Caprylic]	0 µM	0.026 µM	0.017 µM	0.019 µM	0.027 µM	100%	83%	79%	74%	53%	< 23.1 µL/min/mg	> 1 h	0.032 µM	0.039 µM	0.018 µM	0.0067 µM	0 µM	100%	81%	88%	microsomal CLint at 1 μM [2]: 20 µL/min/mg; half-life at 1 μM [3]: 1.15 h; % Remaining of Initial, 30 min (male, Sprague-Dawley, rat): 72%; % Remaining of Initial, 60 min (male, Sprague-Dawley, rat): 68%; microsomal CLint at 1 μM (male, Sprague-Dawley, rat): < 23.1 µL/min/mg; microsomal CLint at 1 μM [4]: 12.4 µL/min/mg; half-life at 1 μM [5]: 1.87 h; half-life at 1 μM [1]: > 1 h
CC/C=C\C/C=C\C/C=C\C/C=C\C/C=C\CCCC(=O)OCCNC(=O)CCCCCCCCCCCCCCC [Compound I-5]	0.014 µM	0.020 µM	0.025 µM	0.022 µM	0.016 µM	100%	90%	82%	79%	62%	< 23.1 µL/min/mg	> 1 h	0.034 µM	0.033 µM	0.015 µM	0.015 µM	0.0027 µM	100%	77%	70%	microsomal CLint at 1 μM [2]: 15.4 µL/min/mg; half-life at 1 μM [3]: 1.5 h; % Remaining of Initial, 30 min (male, Sprague-Dawley, rat): 69%; % Remaining of Initial, 60 min (male, Sprague-Dawley, rat): 57%; microsomal CLint at 1 μM (male, Sprague-Dawley, rat): < 23.1 µL/min/mg; microsomal CLint at 1 μM [4]: 18.6 µL/min/mg; half-life at 1 μM [5]: 1.25 h; half-life at 1 μM [1]: > 1 h
